Experiments:
[1] = Dispersion in aqueous phase; assay type: physicochemical; settings: water
[2] = Singlet oxygen formation in aqueous phase (SOSG fluorescence, laser irradiation); settings: 5 μg/mL in aqueous phase with SOSG; laser 670 nm, 4 J/cm^2, 20 mW/cm^2, 200 seconds
Protocol: Singlet oxygen sensor green (SOSG), which is a fluorescent detecting substance that directly reacts with singlet oxygen, was dispersed in an aqueous phase, oleic acid-polyethylene glycol-chlorin e6 (5 μg/mL) was added thereto, and the resulting mixture was mixed. As a comparative example, chlorin e6 (5 μg/mL) or polyethylene glycol-chlorin e6 (5 μg/mL) was used. When OA-PEG-Ce6 and SOSG coexisted in the aqueous phase, the mixture was irradiated with a laser (670 nm) (4 J/cm^2, 20 mW/cm^2, 200 seconds), and the degree of fluorescence was measured by an RF analyzer.

[3] = mouse, in vivo, po, 10 mg/kg
Protocol: C57BL6 mice were fed a high-fat diet for 8 weeks to induce obese and diabetic conditions, and were divided into a control (PBS), a light irradiation group (Laser), a polyethylene glycol-chlorin e6 adiministration group (PC), a polyethylene glycol-chlorin e6 adiministration+light irradiation group (PCL), an OA-PEG-Ce6 adiministration group (OPC) and an OA-PEG-Ce6 adiministration+light sirradiation group (OPCL). Each group was orally administered the treated substance at a concentration of 10 mg/kg (based on chlorin e6), and after 30 minutes, a catheter was injected for endoscopic access and a laser was irradiated through the mouth.
Meanwhile, the accumulation degree of photosensitizer in the removed duodenum was confirmed with a fluorescence-labeled organism bioimaging instrument (Neo Science), and the fluorescence intensity of each tissue was graphically shown.

[4] = tested on: Human duodenal cells (HUTU-80); experiment: Competitive inhibition of uptake in presence of fatty acid (flow cytometry); assay type: cell-based; settings: 10 μg/ml (based on chlorin e6) with 0.10 to 10.00 mg/ml oleylethanolamine, 2 hours
Protocol: Thereafter, the cells were treated with both 0.10 to 10.00 mg/ml oleylethanolamine and 10 μg/ml OA-PEG-Ce6 (based on chlorin e6) and cultured for 2 hours. Thereafter, the cells were washed three times with DPBS, collected, and analyzed by a flow cytometer (BD FACSCanto II).

[5] = tested on: Human duodenal cells (HUTU-80); experiment: Intracellular distribution by confocal laser scanning microscopy; assay type: cell-based; settings: 2 μg/ml (based on chlorin e6), 1 hour; CLSM
Protocol: (§1) Human duodenal cells (HUTU-80) and canine kidney epithelial cells (MDCK) were treated with OA-PEG-Ce6 and polyethylene glycol-chlorin e6 at a concentration of 2 μg/ml (based on chlorin e6) for 1 hour. Thereafter, the cells were washed three times with DPBS and fixed with 4% paraformaldehyde, and the cell nuclei were stained at 4° C. Thereafter, cell images were confirmed under a confocal laser scanning microscope (CLSM).

[6] = tested on: canine kidney epithelial cells (MDCK); experiment: as above; assay type: cell-based; settings: 2 μg/ml (based on chlorin e6), 1 hour; CLSM
Protocol: as §1

[7] = tested on: Human duodenal cells (HUTU-80); experiment: Intracellular uptake by flow cytometry; assay type: cell-based; settings: 2 μg/ml (based on chlorin e6), 1 hour and 4 hours
Protocol: Thereafter, the cells were treated with OA-PEG-Ce6 and polyethylene glycol-chlorin e6 as a comparative group at a concentration of 2 μg/ml (based on chlorin e6) for 1 hour and 4 hours, respectively. Thereafter, the cells were washed three times with DPBS, collected, and analyzed by a flow cytometer (BD FACSCanto II).

[8] = tested on: Human duodenal cells (HUTU-80); experiment: Cytotoxicity and phototoxicity, MTT test; settings: for treatment concentration at which cell viability decreased, light irradiation group: laser 671 nm, 2 J/cm^2, concentration based on chlorin e6
Protocol: (§3) Human duodenal cells (HUTU-80) and canine kidney cells (MDCK) were aliquoted at a density of 1×10^4 cells/well in 0.2 ml portions in each well of a 96-well plate and cultured under conditions of 37° C. and 5% CO2 for 24 hours. On the next day, each well was treated with OA-PEG-Ce6 or polyethylene glycol-chlorin e6 at a concentration of 0.25 to 10 μg/ml (based on chlorin e6), and the corresponding treatment was performed by dividing a light non-irradiation group and a light irradiation group (irradiated with a laser with a wavelength of 671 nm at an intensity of 2 J/cm^2). Thereafter, cell viability was confirmed by the MTT test method.

insulin = experiment: Plasma insulin by ELISA after photodynamic therapy; assay type: in vivo, C57BL6 mice; settings: high-fat diet mice, oral 10 mg/kg (based on chlorin e6), after 22 days; for plasma insulin concentration, administration+light irradiation: laser 0.7 J/cm^2, repeated after 4 days; for plasma insulin concentration, administration only: no light
Protocol: (§2) After 4 days, photodynamic therapy was performed once again by the same method, and then, mouse blood was collected after 22 days. Plasma was isolated from blood to measure the concentrations of GIP (Merk Millipore, USA) and insulin (anti-insulin+pro insulin antibody (10 μg/ml, ab8304, Abcam)) by enzyme-linked immunosorbent assay (ELISA).

[9] = tested on: Human duodenal cells (HUTU-80); experiment: Intracellular active oxygen formation (DCFDA, confocal microscope); assay type: cell-based; settings: 2 μg/ml (based on chlorin e6), 2 hours, light 0, 0.5, 1 and 1.5 J/cm^2, increasing intensity
Protocol: Thereafter, the cells were treated with OA-PEG-Ce6 at a concentration of 2 μg/ml (based on chlorin e6) for 2 hours, and washed three times with DPBS. The cells were treated with DCFDA diluted in DPBS, cultured for 30 minutes, and further washed three times with DPBS. The cells were irradiated with a light with an intensity of 0, 0.5, 1 and 1.5 J/cm^2 to induce a reaction between DCFDA incorporated into the cells and singlet oxygen. Fluorescence appears when the two substances react. Thereafter, the cells were fixed with 4% paraformaldehyde, the cell nuclei were stained with DAPI, and images were confirmed under a confocal microscope.

[10] = target: T1, HEK-293 cells expressing GPR119 (Homo sapiens, UniProt Q8TDV5); experiment: Uptake according to GPR119 expression level (flow cytometry); assay type: cell-based; settings: GPR119 expression vector 0, 4 and 8 μg, 2 μg/ml (based on chlorin e6)
T1 construct: expressed in transfected cells; host or cells: HEK-293
T1 sequence (Q8TDV5 1-335): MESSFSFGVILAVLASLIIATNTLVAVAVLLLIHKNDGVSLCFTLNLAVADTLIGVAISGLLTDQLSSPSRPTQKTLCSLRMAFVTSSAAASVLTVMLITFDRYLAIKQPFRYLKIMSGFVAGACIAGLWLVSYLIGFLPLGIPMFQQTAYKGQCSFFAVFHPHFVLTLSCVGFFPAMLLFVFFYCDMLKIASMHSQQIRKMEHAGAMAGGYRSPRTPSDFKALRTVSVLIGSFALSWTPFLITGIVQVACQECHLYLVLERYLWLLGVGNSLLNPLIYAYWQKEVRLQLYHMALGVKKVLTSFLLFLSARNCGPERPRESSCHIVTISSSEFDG
Protocol: In order to confirm the mechanism by which OA-PEG-Ce6 targets enteroendocrine cells, human fetal kidney cells (HEK-293) expressing G protein-coupled receptor 119 (GPR119), which is a receptor known to recognize fatty acids, were produced.
After 24 hours, a GPR119 expression vector (0, 4 and 8 μg) and polyethyleneimine (PEI) were added to a serum-free medium and mixed for 30 minutes so as to form a complex, and then each cell was treated with the complex for 4 hours. Thereafter, the medium was replaced with a medium containing bovine serum, and GPR119 was allowed to be expressed by culturing the cells for 48 hours. It was confirmed by western blotting whether GPR119 was expressed.
HEK-293 cells expressing GPR119 were treated with OA-PEG-Ce6 and polyethylene glycol-chlorin e6 as a comparative group at a concentration of 2 μg/ml (based on chlorin e6) for 1 hour and 4 hours, respectively. Thereafter, the cells were washed three times with DPBS, collected, and analyzed by a flow cytometer (BD FACSCanto II).

[11] = Obesity amelioration: body weight and fat mass after photodynamic therapy; assay type: in vivo, C57BL6 mice; settings: high-fat diet mice, oral 10 mg/kg (based on chlorin e6), 22 days; for body weight, last day relative to before therapy, administration+light irradiation / fat mass, last day relative to before therapy, administration+light irradiation: laser 0.7 J/cm^2, repeated after 4 days; for fat mass, last day relative to before therapy, administration+light irradiation / fat mass, last day relative to before therapy, administration only: EchoMRI; for body weight, last day relative to before therapy, administration only / fat mass, last day relative to before therapy, administration only: no light
Protocol: After 4 days, photodynamic therapy was performed once again by the same method, and then, changes in body weight and fat mass were measured every other day for 22 days. The experimental results were shown in a bar graph by dividing the body weight and fat mass on the last day of the experiment by the body weight and fat mass before the photodynamic therapy and then converting the obtained values into percentages. Fat mass was measured with EchoMRI-500 (Echo MRI, Houston, TX).

[12] = tested on: Human duodenal cells (HUTU-80)
Protocol: as §3

GIP = experiment: Plasma GIP by ELISA after photodynamic therapy; assay type: in vivo, C57BL6 mice; settings: high-fat diet mice, oral 10 mg/kg (based on chlorin e6), after 22 days; for plasma GIP concentration, administration+light irradiation: laser 0.7 J/cm^2, repeated after 4 days; for plasma GIP concentration, administration only: no light
Protocol: as §2

[13] = tested on: canine kidney cells (MDCK); experiment: Cytotoxicity and phototoxicity, MTT test; settings: 0.25 to 10 μg/ml (based on chlorin e6), no light
Protocol: as §3

In the case of `C=Cc1c(C)c2cc3nc(c(CC(=O)O)c4[nH]c(cc5nc(cc1[nH]2)C(C)=C5CC)c(C)c4C(=O)O)[C@@H](CCC(=O)O)[C@@H]3C` [chlorin e6], the “dispersion in the aqueous phase” value [1] is reported as “could not be dispersed in the aqueous phase” and the “ability to form active oxygen (singlet oxygen)” value [2] is reported as “could hardly form active oxygen”.

With “oleic acid-polyethylene glycol-chlorin e6 [OA-PEG-Ce6]” the “accumulation degree of photosensitizer in the duodenum” value [3] was “remarkably large amount of photosensitizer was accumulated”, the “intracellular uptake (fluorescence intensity) with increasing oleylethanolamine” value [4] was “intracellular uptake was reduced” and the “incorporation into cells versus conjugate without targeting substance” value [5] was “more incorporated into cells than polyethylene glycol-chlorin e6 (PC)”. For the same molecule, the “incorporation into HUTU-80 versus MDCK cells” value [6] was “more incorporated into human duodenal cells (HUTU-80) than in canine kidney epithelial cells (MDCK)”, the “amount absorbed by the cells” value [7] was “more absorbed by the cells than polyethylene glycol-chlorin e6 (PC)” and the “treatment concentration at which cell viability decreased, light irradiation group” value [8] was no less than 0.5 µg/mL. The “plasma insulin concentration, administration+light irradiation” value (insulin) was 758.0 pg/mL, the “plasma insulin concentration, administration only” value (insulin) was 210.5 pg/mL and the “dispersion in the aqueous phase” value [1] was “well dispersed in water”. The “intracellular active oxygen generation (DCFDA green fluorescence)” value [9] was “generated a large amount of active oxygen”, the “intracellular accumulation rate with increasing GPR119 expression” value [10] was “partially increased” and the “body weight, last day relative to before therapy, administration+light irradiation” value [11] was 83.6%. For the same molecule, the “fat mass, last day relative to before therapy, administration+light irradiation” value [11] was 47.2%, the “body weight, last day relative to before therapy, administration only” value [11] was 91.1% and the “fat mass, last day relative to before therapy, administration only” value [11] was 62.8%. The “concentration at which cell viability decreased, light non-irradiation group” value [12] was no less than 2.5 µg/mL, the “plasma GIP concentration, administration+light irradiation” value (GIP) was 177.7 pg/mL and the “plasma GIP concentration, administration only” value (GIP) was 435.5 pg/mL.

With “polyethylene glycol-chlorin e6 [reference compound]” the “change in cell viability, light non-irradiation group” value ([8]; 0.25 to 10 μg/ml (based on chlorin e6), no light) was “almost no change in cell viability”, the “treatment concentration at which cell viability decreased, light irradiation group” value [8] was no less than 2.5 µg/mL and the “plasma insulin concentration, administration+light irradiation” value (insulin) was 374.3 pg/mL. The “plasma insulin concentration, administration only” value (insulin) was 304.3 pg/mL, the “dispersion in the aqueous phase” value [1] was “well dispersed in water” and the “change in cell viability, light non-irradiation group” value [13] was “no change in the cell viability”. The “body weight, last day relative to before therapy, administration+light irradiation” value [11] was 90.1%, the “fat mass, last day relative to before therapy, administration+light irradiation” value [11] was 60.0% and the “body weight, last day relative to before therapy, administration only” value [11] was 93.1%. The “fat mass, last day relative to before therapy, administration only” value [11] was 68.4%, the “plasma GIP concentration, administration+light irradiation” value (GIP) was 339.6 pg/mL and the “plasma GIP concentration, administration only” value (GIP) was 289.1 pg/mL.
